For 1 molecule, IC50 and Ratio IC50 results are on record in ChEMBL document CHEMBL4033665, “Synthesis and applications of benzohydroxamic acid-based histone deacetylase inhibitors” (Eur J Med Chem, 2017).

Experiment [1] concerns the target T1, Protein deacetylase HDAC6 (Homo sapiens, UniProt Q9UBN7).
T1 sequence (Q9UBN7 whole entry): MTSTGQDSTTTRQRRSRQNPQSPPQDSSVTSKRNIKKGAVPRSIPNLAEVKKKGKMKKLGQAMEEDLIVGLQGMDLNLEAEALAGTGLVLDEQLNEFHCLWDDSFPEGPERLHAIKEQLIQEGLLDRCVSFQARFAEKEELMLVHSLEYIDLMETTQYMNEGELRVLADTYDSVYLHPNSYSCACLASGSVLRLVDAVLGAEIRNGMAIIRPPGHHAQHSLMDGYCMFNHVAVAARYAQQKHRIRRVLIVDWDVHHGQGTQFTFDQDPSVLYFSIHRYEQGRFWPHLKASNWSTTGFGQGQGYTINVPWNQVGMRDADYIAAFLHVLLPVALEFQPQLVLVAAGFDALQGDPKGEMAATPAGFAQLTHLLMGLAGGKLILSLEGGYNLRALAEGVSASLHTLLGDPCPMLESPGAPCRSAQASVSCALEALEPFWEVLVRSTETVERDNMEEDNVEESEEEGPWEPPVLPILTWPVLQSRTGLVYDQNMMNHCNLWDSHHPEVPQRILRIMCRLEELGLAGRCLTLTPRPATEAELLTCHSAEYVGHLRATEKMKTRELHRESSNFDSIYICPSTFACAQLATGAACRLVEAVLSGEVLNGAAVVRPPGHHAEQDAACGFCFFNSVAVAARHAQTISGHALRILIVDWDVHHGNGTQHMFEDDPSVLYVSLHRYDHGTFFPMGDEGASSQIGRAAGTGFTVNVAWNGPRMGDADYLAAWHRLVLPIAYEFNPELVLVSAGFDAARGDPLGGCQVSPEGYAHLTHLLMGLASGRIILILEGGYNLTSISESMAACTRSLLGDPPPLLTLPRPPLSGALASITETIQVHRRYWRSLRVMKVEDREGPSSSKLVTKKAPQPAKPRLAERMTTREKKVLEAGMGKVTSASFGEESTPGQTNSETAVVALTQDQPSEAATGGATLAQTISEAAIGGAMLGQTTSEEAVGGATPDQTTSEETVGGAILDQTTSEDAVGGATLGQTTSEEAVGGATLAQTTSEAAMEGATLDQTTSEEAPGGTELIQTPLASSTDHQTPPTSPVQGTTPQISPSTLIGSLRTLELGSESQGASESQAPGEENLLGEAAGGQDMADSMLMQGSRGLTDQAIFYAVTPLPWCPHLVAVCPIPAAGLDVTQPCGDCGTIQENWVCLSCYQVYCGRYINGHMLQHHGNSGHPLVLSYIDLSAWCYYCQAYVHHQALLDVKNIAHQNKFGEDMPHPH
Briefly: Inhibition of human HDAC6 after 15 mins by trypsin-coupled fluorescence assay.

The species named for experiment [2] is Homo sapiens. Briefly: Selectivity index, ratio of IC50 for human HDAC1 to IC50 for human HDAC6.
For experiment [3], the species on record is Homo sapiens. The experiment can be described thus: Selectivity index, ratio of IC50 for human HDAC9 to IC50 for human HDAC6.
Another experiment deals with T2, Histone deacetylase 8 (Homo sapiens, UniProt Q9BY41).
T2 sequence (Q9BY41 whole entry): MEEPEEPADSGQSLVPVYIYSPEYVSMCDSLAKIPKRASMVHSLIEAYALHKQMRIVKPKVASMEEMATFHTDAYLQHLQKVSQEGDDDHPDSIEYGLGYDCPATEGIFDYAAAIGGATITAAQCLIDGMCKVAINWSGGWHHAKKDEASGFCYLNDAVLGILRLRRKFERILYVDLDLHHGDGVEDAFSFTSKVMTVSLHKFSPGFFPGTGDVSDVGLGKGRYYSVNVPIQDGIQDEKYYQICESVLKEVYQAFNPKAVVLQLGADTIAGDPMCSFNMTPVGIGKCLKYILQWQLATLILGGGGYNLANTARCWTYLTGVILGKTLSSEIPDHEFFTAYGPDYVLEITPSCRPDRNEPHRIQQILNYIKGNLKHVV
Briefly: Inhibition of human HDAC8 after 15 mins by trypsin-coupled fluorescence assay.

In experiment [4] the target is T3, Polyamine deacetylase HDAC10 (Homo sapiens, UniProt Q969S8).
T3 sequence (Q969S8 whole entry): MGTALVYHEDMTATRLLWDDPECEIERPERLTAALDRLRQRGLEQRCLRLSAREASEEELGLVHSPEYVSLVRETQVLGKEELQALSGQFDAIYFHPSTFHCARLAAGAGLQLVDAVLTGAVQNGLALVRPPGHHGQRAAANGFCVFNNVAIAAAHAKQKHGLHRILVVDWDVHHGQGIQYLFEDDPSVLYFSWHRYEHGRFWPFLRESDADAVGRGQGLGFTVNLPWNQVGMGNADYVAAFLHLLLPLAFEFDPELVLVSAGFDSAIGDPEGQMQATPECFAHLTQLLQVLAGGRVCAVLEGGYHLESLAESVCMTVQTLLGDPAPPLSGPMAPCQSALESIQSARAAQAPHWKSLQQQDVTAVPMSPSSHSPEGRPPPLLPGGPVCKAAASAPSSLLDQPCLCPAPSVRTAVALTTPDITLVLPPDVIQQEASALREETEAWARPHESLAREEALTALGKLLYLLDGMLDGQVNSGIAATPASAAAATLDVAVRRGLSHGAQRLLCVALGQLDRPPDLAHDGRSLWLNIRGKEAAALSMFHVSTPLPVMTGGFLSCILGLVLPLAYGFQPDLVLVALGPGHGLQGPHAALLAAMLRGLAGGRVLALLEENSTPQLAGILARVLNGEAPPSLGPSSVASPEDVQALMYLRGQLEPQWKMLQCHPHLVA
Briefly: Inhibition of human HDAC10 after 15 mins by trypsin-coupled fluorescence assay.

The species named for experiment [5] is Homo sapiens. The experiment can be described thus: Selectivity index, ratio of IC50 for human HDAC8 to IC50 for human HDAC6.
For experiment [6], the species on record is Homo sapiens. The experiment can be described thus: Selectivity index, ratio of IC50 for human HDAC11 to IC50 for human HDAC6.
The next experiment concerns the target Histone deacetylase 2 (Homo sapiens, UniProt Q92769). The experiment can be described thus: Inhibition of human HDAC2 after 15 mins by trypsin-coupled fluorescence assay.

Sequence of Histone deacetylase 2 (Q92769 whole entry): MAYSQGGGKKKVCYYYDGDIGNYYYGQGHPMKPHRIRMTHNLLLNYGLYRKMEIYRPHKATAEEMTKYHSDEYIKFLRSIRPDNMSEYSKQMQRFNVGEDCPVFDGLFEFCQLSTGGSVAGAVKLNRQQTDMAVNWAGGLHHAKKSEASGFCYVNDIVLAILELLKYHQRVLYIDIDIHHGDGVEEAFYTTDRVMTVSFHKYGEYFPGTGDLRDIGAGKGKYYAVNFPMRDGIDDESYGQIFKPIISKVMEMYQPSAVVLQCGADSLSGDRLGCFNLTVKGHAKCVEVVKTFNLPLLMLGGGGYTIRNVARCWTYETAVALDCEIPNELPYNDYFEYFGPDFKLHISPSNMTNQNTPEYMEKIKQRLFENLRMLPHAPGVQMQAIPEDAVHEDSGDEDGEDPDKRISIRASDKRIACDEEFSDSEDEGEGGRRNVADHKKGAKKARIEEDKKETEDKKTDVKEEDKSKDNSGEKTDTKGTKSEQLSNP

As usually defined, the IC50 is the midpoint of a concentration-inhibition curve. A low value points to inhibition by little substance. Turning to `O=C(NO)c1ccc(CN(CCO)C(=O)Cc2ccccc2)cc1`, the IC50 stood at 25 nM in experiment [1], 400 nM on Histone deacetylase 8, 700 nM in experiment [4] and 2200 nM against Histone deacetylase 2. Further, the Ratio IC50 in the experiment filed under Homo sapiens [2], in the experiment filed under Homo sapiens [3], in the experiment filed under Homo sapiens [5] and in the experiment filed under Homo sapiens [6] was 15 to 400 in each case.
